Data from patent US20080241870A1, “Composition For Creating an Artificial Bone Marrow Like Environment and Use Thereof” (NATIONAL CENTRE FOR CELL SCINECES, priority 2005, published 2008).

Tests used:
Format in all cases: cell-based, human
CD34+ cells = assay: adhesion of CD34+ cells to ABME on coverslips; conditions: 10 ngml^-1, 18 hours; CD34+/MNC contact 1 hour; vs reference coverslip
Protocol: Mesenchyme cells were grown on a sterile 1 cm×1 cm glass coverslip to near confluence and were covered with a treatment medium containing 10 ngml^−1 TGF-β1 and were incubated for 18 hours in a humidified sterile atmosphere and 5% CO2. The coverslips were then washed with PBS, and the ABME thus created were covered with a suspension of 2×10^6 MNC or 2×10^5 CD34^+ cells in 0.2 ml of IMDM with 20% serum. After 1 hour at 37° C., the coverslips were washed with PBS and the cells were fixed and stained with a CD34^+ specific antibody (clone HPCA1, Becton Dickinson, USA). The number of CD34^+ cells attached were counted and compared to the number of similar cells that were attached in a parallel reference experiment where TGF-β1 was not used. […] It may be seen from FIGS. 6(d-f) that there is an increased adhesion of CD34^+ cells to mesenchymal cells when mesenchymal cells are treated with TGF-β1.

mesenchyme cells = assay: SDF-1α release / in vitro homing of CD34+ SPC (conditioned medium of treated mesenchyme cells); conditions: 10 ngml^-1, 4 hours treatment, conditioned medium after 18 hours; vs untreated reference
Protocol: 5×10^5 mesenchyme cells were grown on a 35 mm diameter Petri dish (Becton Dickinson, USA) in IMDM containing 20% serum. After the cells were confluent, the medium was removed, the cells were washed 2× with Phosphate buffered saline (GIBCO-BRL) (PBS) and the medium was changed to treatment medium containing 10 ngml^−1 of TGFβ1 and the dishes were returned to standard cell culture environment at 37° C. in 5% CO2. After 4 hours, the treatment medium was removed, the cells were washed with PBS and were covered with 1 ml of IMDM containing 0.5% serum and incubation at 37° C. in 5% CO2 was continued. After 18 hours, the conditioned medium was collected and was assayed for its ability to support in vitro homing of CD34^+ SPC. In another parallel experiment, an equal number of mesenchymal cells were employed, where TGF-β1 was not used and the conditioned medium obtained from this experiment was used as a reference for comparison. […] As shown in FIGS. 6(a-b) untreated mesenchymal cells show no or marginal homing as compared to mesenchymal cells treated with TGF-β1. The homing could be modulated in this case either by adding suitable amounts of a neutralizing antibody to SDF-1α or to its receptor CXCR-4 to neutralize its effects on chemo-attraction of SPC or by destroying the gradient by exogenous addition of SDF1α indicating the specificity of the process.

mesenchymal cells = assay: Hypoxy probe incorporation in ABME under normoxic conditions; conditions: 200 μM Hypoxy probe, 48 hours; FIG. 11b
Protocol: Mesenchymal cells were processed for ABME formation as per details given in Example 7(a) above using a biological modulator namely TGFbeta1 and were incubated with 200 μM Hypoxy probe (Chemicon, USA) for 48 hours. The cells were fixed and immuno-stained with an antibody specific for detection of the label (Chemicon).

HIF1α = HIF1α immunostaining of mesenchymal cells; conditions: immunostaining vs control cells; FIG. 11a
Source text: Mesenchymal cells were processed for ABME formation as per details given in experiment #1 above using a biological modulator namely TGFbeta1. The cells were fixed after the indicated time periods and immuno-stained with an antibody to HIF1α which is a specific transcription factor related to hypoxia.

## HumanTransforming Growth Factor beta1 [TGFβ1]
CD34+ cells
  number of CD34+ cells attached to ABME: significantly more number of CD34^+ cells attached
Mesenchyme cells
  SDF-1α release from mesenchymal cells: significantly more amounts of SDF-1α was released
Mesenchymal cells
  Hypoxy probe label incorporation: high incorporation of the label
HIF1α
  HIF1α expression: clear nuclear expression of HIF1α
